Assay results published in PubChem BioAssay AID1259407 (Chemical Carcinogenesis Research Information System (CCRIS), 2018).
Calls of active or inactive are those of the source. The rule behind the calls is not given here.

System: CCRIS mutagenicity, Ames/micronucleus/aberration tests
Test: CCRIS mutagenicity studies
[1] = Test System: AMES SALMONELLA TYPHIMURIUM, Strain/Indicator: TA98, Metabolic Activation: NONE, Method: PREINCUBATION
[2] = Test System: AMES SALMONELLA TYPHIMURIUM, Strain/Indicator: TA100, Metabolic Activation: NONE, Method: PREINCUBATION
[3] = Test System: AMES SALMONELLA TYPHIMURIUM, Strain/Indicator: TA1535, Metabolic Activation: NONE, Method: PREINCUBATION
[4] = Test System: AMES SALMONELLA TYPHIMURIUM, Strain/Indicator: TA1537, Metabolic Activation: NONE, Method: PREINCUBATION
[5] = Test System: E. COLI, Strain/Indicator: WP2 UVRA, Metabolic Activation: NONE, Method: STANDARD PLATE

`CCCCCCCCCCCCOCCO` was tested, and the mutagenic call (End Point: IN VITRO CHROMOSOMAL ABERRATIONS, Test System: CHO-LB CELLS, Metabolic Activation: NONE) was “inactive; negative”, the mutagenic call (End Point: IN VITRO CHROMOSOMAL ABERRATIONS, Test System: CHO-LB CELLS, Metabolic Activation: RAT, LIVER, S-9, AROCLOR 1254) was “inactive; negative” and the mutagenic call (Test System: AMES SALMONELLA TYPHIMURIUM, Strain/Indicator: TA98, Metabolic Activation: HAMSTER, LIVER, S-9, AROCLOR 1254 (10%), Method: PREINCUBATION) was “inactive; negative”. The mutagenic call [1] was “inactive; negative”, the mutagenic call (Test System: AMES SALMONELLA TYPHIMURIUM, Strain/Indicator: TA98, Metabolic Activation: RAT, LIVER, S-9, AROCLOR 1254 (10%), Method: PREINCUBATION) was “inactive; negative” and the mutagenic call (Test System: AMES SALMONELLA TYPHIMURIUM, Strain/Indicator: TA100, Metabolic Activation: HAMSTER, LIVER, S-9, AROCLOR 1254 (10%), Method: PREINCUBATION) was “inactive; negative”. The mutagenic call [2] was “inactive; negative”, the mutagenic call (Test System: AMES SALMONELLA TYPHIMURIUM, Strain/Indicator: TA100, Metabolic Activation: RAT, LIVER, S-9, AROCLOR 1254 (10%), Method: PREINCUBATION) was “inactive; negative” and the mutagenic call (Test System: AMES SALMONELLA TYPHIMURIUM, Strain/Indicator: TA1535, Metabolic Activation: HAMSTER, LIVER, S-9, AROCLOR 1254 (10%), Method: PREINCUBATION) was “inactive; negative”. For the same compound, the mutagenic call [3] was “inactive; negative”, the mutagenic call (Test System: AMES SALMONELLA TYPHIMURIUM, Strain/Indicator: TA1535, Metabolic Activation: RAT, LIVER, S-9, AROCLOR 1254 (10%), Method: PREINCUBATION) was “inactive; negative” and the mutagenic call (Test System: AMES SALMONELLA TYPHIMURIUM, Strain/Indicator: TA1537, Metabolic Activation: HAMSTER, LIVER, S-9, AROCLOR 1254 (10%), Method: PREINCUBATION) was “inactive; negative”. For the same compound, the mutagenic call [4] was “inactive; negative”, the mutagenic call (Test System: AMES SALMONELLA TYPHIMURIUM, Strain/Indicator: TA1537, Metabolic Activation: RAT, LIVER, S-9, AROCLOR 1254 (10%), Method: PREINCUBATION) was “inactive; negative” and the mutagenic call [5] was “inactive; negative”. The mutagenic call (Test System: E. COLI, Strain/Indicator: WP2 UVRA, Metabolic Activation: S-9, Method: STANDARD PLATE) was “inactive; negative”.

In the case of `COc1ccc(C=O)cc1`, the mutagenic call (Test System: AMES SALMONELLA TYPHIMURIUM, Strain/Indicator: TA97, Metabolic Activation: NONE, Method: PREINCUBATION) is reported as “inactive; negative”, the mutagenic call (Test System: AMES SALMONELLA TYPHIMURIUM, Strain/Indicator: TA97, Metabolic Activation: RAT, LIVER, S-9, AROCLOR 1254, Method: PREINCUBATION) is reported as “inactive; negative” and the mutagenic call [1] is reported as “inactive; negative”. The mutagenic call (Test System: AMES SALMONELLA TYPHIMURIUM, Strain/Indicator: TA98, Metabolic Activation: RAT LIVER S-9, PHENOBARBITAL AND BETA-NAPHTHOFLAVONE, Method: PREINCUBATION) was “inactive; negative”, the mutagenic call [2] was “inactive; negative” and the mutagenic call (Test System: AMES SALMONELLA TYPHIMURIUM, Strain/Indicator: TA100, Metabolic Activation: RAT LIVER S-9, PHENOBARBITAL AND BETA-NAPHTHOFLAVONE, Method: PREINCUBATION) was “inactive; negative”. The mutagenic call (Test System: AMES SALMONELLA TYPHIMURIUM, Strain/Indicator: TA102, Metabolic Activation: NONE, Method: PREINCUBATION) was “inactive; negative”, the mutagenic call (Test System: AMES SALMONELLA TYPHIMURIUM, Strain/Indicator: TA102, Metabolic Activation: RAT, LIVER, S-9, AROCLOR 1254, Method: PREINCUBATION) was “inactive; negative” and the mutagenic call [3] was “inactive; negative”. For the same compound, the mutagenic call (Test System: AMES SALMONELLA TYPHIMURIUM, Strain/Indicator: TA1535, Metabolic Activation: RAT LIVER S-9, PHENOBARBITAL AND BETA-NAPHTHOFLAVONE, Method: PREINCUBATION) was “inactive; negative”, the mutagenic call [4] was “inactive; negative” and the mutagenic call (Test System: AMES SALMONELLA TYPHIMURIUM, Strain/Indicator: TA1537, Metabolic Activation: RAT LIVER S-9, PHENOBARBITAL AND BETA-NAPHTHOFLAVONE, Method: PREINCUBATION) was “inactive; negative”. For the same compound, the mutagenic call (Test System: AMES SALMONELLA TYPHIMURIUM, Strain/Indicator: TA1538, Metabolic Activation: NONE, Method: PREINCUBATION) was “inactive; negative”, the mutagenic call (Test System: AMES SALMONELLA TYPHIMURIUM, Strain/Indicator: TA1538, Metabolic Activation: RAT LIVER S-9, PHENOBARBITAL AND BETA-NAPHTHOFLAVONE, Method: PREINCUBATION) was “inactive; negative” and the mutagenic call (Test System: E. COLI, Strain/Indicator: WP2UVRA, Metabolic Activation: NONE, Method: PREINCUBATION) was “inactive; negative”. The mutagenic call (Test System: E. COLI, Strain/Indicator: WP2UVRA, Metabolic Activation: RAT LIVER S-9, PHENOBARBITAL AND BETA-NAPHTHOFLAVONE, Method: PREINCUBATION) was “inactive; negative”, the mutagenic call (Test System: MOUSE LYMPHOMA, Strain/Indicator: L5178Y (TK+/TK-), Metabolic Activation: NONE, Method: SUSPENSION/PLATE) was “active; positive” and the mutagenic call (Test System: MOUSE LYMPHOMA, Strain/Indicator: L5178Y (TK+/TK-), Metabolic Activation: RAT, LIVER, S-9, AROCLOR 1254, Method: SUSPENSION/PLATE) was “active; positive. reevaluation of results: positive”. The mutagenic call (Test System: Mouse lymphoma, Strain/Indicator: L5178Y (tk+/tk-), Metabolic Activation: None, Method: Suspension/plate) was “inactive; negative”.

For `Oc1ccc(Oc2c(Cl)cc(Cl)cc2Cl)cc1`, the mutagenic call (Test System: AMES SALMONELLA TYPHIMURIUM, Strain/Indicator: TA98, Metabolic Activation: S-9, Method: STANDARD PLATE) was “inactive; negative”, the mutagenic call (Test System: AMES SALMONELLA TYPHIMURIUM, Strain/Indicator: TA100, Metabolic Activation: S-9, Method: STANDARD PLATE) was “inactive; negative” and the mutagenic call (Test System: AMES SALMONELLA TYPHIMURIUM, Strain/Indicator: YG1021, Metabolic Activation: S-9, Method: STANDARD PLATE) was “inactive; negative”. For the same compound, the mutagenic call (Test System: AMES SALMONELLA TYPHIMURIUM, Strain/Indicator: YG1024, Metabolic Activation: S-9, Method: STANDARD PLATE) was “inactive; negative”, the mutagenic call (Test System: AMES SALMONELLA TYPHIMURIUM, Strain/Indicator: YG1026, Metabolic Activation: S-9, Method: STANDARD PLATE) was “inactive; negative” and the mutagenic call (Test System: AMES SALMONELLA TYPHIMURIUM, Strain/Indicator: YG1029, Metabolic Activation: S-9, Method: STANDARD PLATE) was “inactive; negative”.

For `CCOP(=O)(OCC)SCCSCC` (tested in a mixture with another compound), the mutagenic call [5] was “active; positive”, the mutagenic call (Test System: E. COLI, Strain/Indicator: WP2 UVRA, Metabolic Activation: RAT, LIVER, S-9, AROCLOR 1254, Method: STANDARD PLATE) was “active; positive” and the mutagenic call (Test System: UDS HUMAN FIBROBLASTS, Strain/Indicator: THY INCORP (NON-S-PHASE), Metabolic Activation: NONE, Method: LIQUID SCINTILLATION COUNTING) was “active; positive”.

In the case of `[As]`, the mutagenic call (End Point: IN VIVO CHROMOSOMAL ABERRATIONS, Test System: BLOOD LYMPHOCYTES, Species: HUMAN, Strain/Sex: MALE, FEMALE, Route: ORAL, DRINKING WATER) is reported as “active; positive (structural changes) ; all subjects showed arsenic-related skin lesions”, the mutagenic call (End Point: IN VIVO CHROMOSOMAL ABERRATIONS, Test System: PERIPHERAL BLOOD LYMPHOCYTES, Species: HUMAN, Strain/Sex: MALE, FEMALE, Route: DRINKING WATER) is reported as “active; positive; exact form of arsenic not given: significant increase in exposed indiv” and the mutagenic call (End Point: IN VIVO MICRONUCLEUS, Test System: PERIPHERAL BLOOD LYMPHOCYTES, Species: HUMAN, Strain/Sex: MALE, FEMALE, Route: ORAL, DRINKING WATER) is reported as “active; positive; environmental exposure from drinking water”. For the same compound, the mutagenic call (End Point: In vivo micronucleus, Test System: Peripheral lymphocytes, Species: Human, Strain/Sex: Male, Route: Inhalation (Occupational)) was “inactive; negative”.

`CCCCN(N=O)C(CCC)OC(C)=O` (centres undefined) was tested, and the mutagenic call (Test System: UDS RAT UROTHELIAL CELLS, Strain/Indicator: THY INCORP, Metabolic Activation: NONE) was “active; positive”.
